Data on 37 molecules can be found in patent US6348468B1, “Pyridazine compounds and compositions containing the same” (Kowa Co., Ltd., priority 1997, dated 2002).

Molecules are shown by their SMILES.

As usually defined, the melting point is the temperature of the solid-liquid transition. `CSc1ccc(-c2n[nH]c(=O)cc2-c2ccc(F)cc2)cc1` [Example 9, 5-(4-fluorophenyl)-6-[4-(methylthio)phenyl]-2H-pyridazin-3-one] yielded a melting point of 197.4 to 198.2 °C.

The molecule `COc1ccc(-c2cc(=O)n(CCCOc3ccccc3)nc2-c2ccc(OC)cc2)cc1` [Example 20, 5,6-bis(4-methoxyphenyl)-2-[3-(phenoxy)propyl]-2H-pyridazin-3-one] displayed a melting point of 110 to 111 °C. The value for `COc1ccc(-c2cc(=O)n(Cc3ccc(Cl)cc3)nc2-c2ccc(OC)cc2)cc1` [Example 33, 5,6-bis(4-methoxyphenyl)-2-(4-chlorobenzyl)-2H-pyridazin-3-one] was 124.2 to 127.3 °C; that for `COC(=O)c1ccc(Cn2nc(-c3ccc(OC)cc3)c(-c3ccc(OC)cc3)cc2=O)cc1` [Example 42, 5,6-bis(4-methoxyphenyl)-2-(4-methoxycarbonylbenzyl)-2H-pyridazin-3-one] was 185.5 to 186.6 °C; that for `COc1ccc(-c2cc(=O)n(Cc3ccccn3)nc2-c2ccc(OC)cc2)cc1` [Example 43, 5,6-bis(4-methoxyphenyl)-2-(2-pyridylmethyl)-2H-pyridazin-3-one] was 116 to 117 °C. The value for `COc1ccc(-c2cc(=O)n(Cc3ccncc3)nc2-c2ccc(OC)cc2)cc1` [Example 45, 5,6-bis(4-methoxyphenyl)-2-(4-pyridylmethyl)-2H-pyridazin-3-one] was 182.1 to 183.1 °C; that for `COc1ccc(-c2nn(Cc3ccccc3)c(=O)cc2-c2ccc(Cl)cc2)cc1` [Example 49, 5-(4-chlorophenyl)-6-(4-methoxyphenyl)-2-benzyl-2H-pyridazin-3-one] was 165 to 167 °C.

In the case of `COc1ccc(-c2nn(Cc3ccncc3)c(=O)cc2-c2ccc(Cl)cc2)cc1` [Example 50, 5-(4-chlorophenyl)-6-(4-methoxyphenyl)-2-(4-pyridylmethyl)-2H-pyridazin-3-one], the melting point is 142 to 143 °C. The molecule `CSc1ccc(-c2nn(Cc3ccc(F)cc3F)c(=O)cc2-c2ccc(Cl)cc2)cc1` [Example 53, 5-(4-chlorophenyl)-6-[4-(methylthio)phenyl]-2-(2,4-difluorobenzyl)-2H-pyridazin-3-one] had a melting point of 157.4 to 157.5 °C. Under `CSc1ccc(-c2nn(Cc3ccc(Cl)cc3Cl)c(=O)cc2-c2ccc(Cl)cc2)cc1` [Example 54, 5-(4-chlorophenyl)-6-[4-(methylthio)phenyl]-2-(2,4-dichlorobenzyl)-2H-pyridazin-3-one] stands 154.5 to 155 °C. The value for `CSc1ccc(-c2nn(CC=Cc3ccccc3)c(=O)cc2-c2ccc(Cl)cc2)cc1` [Example 56, 5-(4-chlorophenyl)-6-[4-(methylthio)phenyl]-2-cinnamyl-2H-pyridazin-3-one] was 109.3 to 110.2 °C; that for `COc1ccc(Cn2nc(-c3ccc(SC)cc3)c(-c3ccc(F)cc3)cc2=O)cc1` [Example 62, 5-(4-fluorophenyl)-6-[4-(methylthio)phenyl]-2-(4-methoxybenzyl)-2H-pyridazin-3-one] was 165.3 to 165.7 °C; that for `CSc1ccc(Cn2nc(-c3ccc(SC)cc3)c(-c3ccc(F)cc3)cc2=O)cc1` [Example 63, 5-(4-fluorophenyl)-6-[4-(methylthio)phenyl]-2-[4-(methylthio)benzyl]-2H-pyridazin-3-one] was 116 to 116.1 °C. Under `CSc1ccc(-c2nn(Cc3cccnc3)c(=O)cc2-c2ccc(F)cc2)cc1` [Example 67, 5-(4-fluorophenyl)-6-[4-(methylthio)phenyl]-2-(3-pyridylmethyl)-2H-pyridazin-3-one] stands 159.8 to 160.7 °C. `CSc1ccc(-c2nn(Cc3ccccc3)c(=O)cc2-c2ccccc2)cc1` [Example 71, 2-benzyl-6-[4-(methylthio)phenyl]-5-phenyl-2H-pyridazin-3-one] registered a melting point of 157.3 to 158.4 °C.

As for `C[S+]([O-])c1ccc(-c2nn(Cc3ccccc3)c(=O)cc2-c2ccc(Cl)cc2)cc1` (stereo not shown) [Example 85, 2-benzyl-5-(4-chlorophenyl)-6-[4-(methylsulfinyl)phenyl]-2H-pyridazin-3-one], the melting point lay within 143.7 to 144.7 °C. `C[S+]([O-])c1ccc(-c2nn(CC3CC3)c(=O)cc2-c2ccc(Cl)cc2)cc1` (stereo not shown) [Example 86, 5-(4-chlorophenyl)-2-cyclopropylmethyl-6-[4-(methylsulfinyl)phenyl]-2H-pyridazin-3-one] yielded a melting point of 152.2 to 152.3 °C. The value for `C[S+]([O-])c1ccc(-c2nn(CC3CC3)c(=O)cc2-c2ccc(F)cc2)cc1` (stereo not shown) [Example 87, 2-cyclopropylmethyl-5-(4-fluorophenyl)-6-[4-(methylsulfinyl)phenyl]-2H-pyridazin-3-one] was 133.3 to 133.5 °C; that for `COc1ccc(Cn2nc(-c3ccc([S+](C)[O-])cc3)c(-c3ccc(F)cc3)cc2=O)cc1` (stereo not shown) [Example 89, 5-(4-fluorophenyl)-2-(4-methoxybenzyl)-6-[4-(methylsulfinyl)phenyl]-2H-pyridazin-3-one] was 81.3 to 81.5 °C. Under `C[S+]([O-])c1ccc(-c2nn(Cc3ccc(F)cc3F)c(=O)cc2-c2ccc(Cl)cc2)cc1` (stereo not shown) [Example 91, 2-(2,4-difluorobenzyl)-5-(4-chlorophenyl)-6-[4-(methylsulfinyl)phenyl]-2H-pyridazin-3-one] stands 155.6 to 155.7 °C; under `C[S+]([O-])c1ccc(-c2nn(Cc3ccc(Cl)cc3Cl)c(=O)cc2-c2ccc(Cl)cc2)cc1` (stereo not shown) [Example 92, 5-(4-chlorophenyl)-2-(2,4-dichlorobenzyl)-6-[4-(methylsulfinyl)phenyl]-2H-pyridazin-3-one], 236.5 to 237.3 °C.

On to `CS(=O)(=O)c1ccc(-c2nn(Cc3ccccc3)c(=O)cc2-c2ccc(Cl)cc2)cc1` [Example 97, 2-benzyl-5-(4-chlorophenyl)-6-[4-(methylsulfonyl)phenyl]-2H-pyridazin-3-one], for which the melting point was in the range of 103.2 to 105.7 °C. Take `CS(=O)(=O)c1ccc(-c2n[nH]c(=O)cc2-c2ccc(Cl)cc2)cc1` [Example 98, 5-(4-chlorophenyl)-6-[4-(methylsulfonyl)phenyl]-2H-pyridazin-3-one]: the melting point lay within 254 to 254.7 °C.

Turning to `CS(=O)(=O)c1ccc(-c2nn(CC3CC3)c(=O)cc2-c2ccc(Cl)cc2)cc1` [Example 99, 5-(4-chlorophenyl)-2-cyclopropylmethyl-6-[4-(methylsulfonyl)phenyl]-2H-pyridazin-3-one], the melting point was 139.7 to 139.8 °C. Under `CS(=O)(=O)c1ccc(-c2nn(CC3CC3)c(=O)cc2-c2ccc(F)cc2)cc1` [Example 100, 2-cyclopropylmethyl-5-(4-fluorophenyl)-6-[4-(methylsulfonyl)phenyl]-2H-pyridazin-3-one] stands 123.8 to 123.9 °C. The molecule `CS(=O)(=O)c1ccc(-c2nn(Cc3ccc(F)cc3F)c(=O)cc2-c2ccc(Cl)cc2)cc1` [Example 103, 2-(2,4-difluorobenzyl)-5-(4-chlorophenyl)-6-[4-(methylsulfonyl)phenyl]-2H-pyridazin-3-one] had a melting point of 173.8 to 173.9 °C. Under `CS(=O)(=O)c1ccc(-c2nn(Cc3ccc(Cl)cc3Cl)c(=O)cc2-c2ccc(Cl)cc2)cc1` [Example 104, 5-(4-chlorophenyl)-2-(2,4-dichlorobenzyl)-6-[4-(methylsulfonyl)phenyl]-2H-pyridazin-3-one] stands 232.7 to 234.5 °C. Under `CS(=O)(=O)c1ccc(-c2nn(Cc3cccnc3)c(=O)cc2-c2ccc(Cl)cc2)cc1` [Example 106, 5-(4-chlorophenyl)-6-[4-(methylsulfonyl)phenyl]-2-(3-pyridylmethyl)-2H-pyridazin-3-one] stands 248 to 248.1 °C; under `CS(=O)(=O)c1ccc(-c2nn(Cc3ccncc3)c(=O)cc2-c2ccc(F)cc2)cc1` [Example 107, 5-(4-fluorophenyl)-6-[4-(methylsulfonyl)phenyl]-2-(4-pyridylmethyl)-2H-pyridazin-3-one], 253.3 to 254.5 °C. As for `CS(=O)(=O)c1ccc(-c2nn(CCCc3ccccc3)c(=O)cc2-c2ccc(Cl)cc2)cc1` [Example 108, 5-(4-chlorophenyl)-6-[4-(methylsulfonyl)phenyl]-2-(3-phenylpropyl)-2H-pyridazin-3-one], the melting point lay in the range of 70.2 to 71.6 °C. Regarding `CS(=O)(=O)c1ccc(-c2nn(Cc3ccccc3)c(=O)cc2-c2ccccc2)cc1` [Example 109, 2-benzyl-6-[4-(methylsulfonyl)phenyl]-5-phenyl-2H-pyridazin-3-one], the melting point lay within 211 to 212 °C. `COc1ccc(-c2cc(=O)n(Cc3ccc(C(=O)O)cc3)nc2-c2ccc(OC)cc2)cc1` [Example 112, 5,6-bis(4-methoxyphenyl)-2-(4-carboxybenzyl)-2H-pyridazin-3-one]: the melting point lay within 241 to 242 °C.

As for `COc1ccc(-c2cc(=O)n(CCC(=O)NCc3ccccc3)nc2-c2ccc(OC)cc2)cc1` [Example 115, 5,6-bis(4-methoxyphenyl)-2-[2-(benzylaminocarbonyl)ethyl]-2H-pyridazin-3-one], the melting point fell in the range of 135 to 137 °C. Under `CSc1ccc(C2=NN(Cc3ccccc3)C(=O)CC2c2ccc(Cl)cc2)cc1` (stereo not shown) [Example 121, 2-benzyl-5-(4-chlorophenyl)-4,5-dihydro-6-[4-(methylthio)phenyl]-2H-pyridazin-3-one] stands 113.5 to 113.9 °C. The value for `CSc1ccc(-c2nn(Cc3ccc(F)cc3F)c(=S)cc2-c2ccc(Cl)cc2)cc1` [Example 133, 5-(4-chlorophenyl)-2-(2,4-difluorobenzyl)-6-[4-(methylthio)phenyl]-2H-pyridazine-3-thione] was 176.5 to 176.6 °C. The value for `CSc1ccc(-c2n[nH]c(=S)cc2-c2ccc(F)cc2)cc1` [Example 136, 5-(4-fluorophenyl)-6-[4-(methylthio)phenyl]-2H-pyridazine-3-thione] was 218.7 to 218.9 °C. Regarding `CSc1ccc(-c2nn(Cc3ccccc3)c(=S)cc2-c2ccc(F)cc2)cc1` [Example 138, 2-benzyl-5-(4-fluorophenyl)-6-[4-(methylthio)phenyl]-2H-pyridazine-3-thione], the melting point lay within 108.1 to 108.2 °C.
